Experimental findings from patent US20090233906A1, “IMIDAZOAZEPINONE COMPOUNDS” (priority 2006, published 2009) are described below.

One experiment concerns human T-bet. In words: HEKT-bet-luc assay (normalized). Format: cell-based. The note with it: Homo sapiens, HEK293, 24 h, normalized HEKT-bet-luc IC50; engineered HEK cells, T-box responsive luciferase reporter, compound 24 hours; normalized to reference ER-819544; read-out: IC50. The protocol: HEKT-bet-luc assay: This assay measures a T-bet dependent reporter (luciferase) activity in engineered HEK cells that express a human T-bet and a T-box responsive element driving luciferase reporter. HEKT-bet cells were plated at 2×10^4/well in 96-well plate and compound was added into cell culture for 24 hours. Luciferase activity was measured by adding 50 μl of Steady-Glo reagent (Promega) and samples were read in Victor V reader (PerkinElmer). The activity of compound was determined by comparing compound treated samples to non-compound treated vehicle controls. The IC50 values were calculated utilizing a maximum value corresponding to the amount of luciferase in the absence of a test compound and a minimum value corresponding to a test compound value obtained at maximum inhibition.
Determination of Normalized HEKT-bet IC50 values: Compounds were assayed in microtiter plates. Each plate included a reference compound which was ER-819544. The un-normalized IC50 value for a particular compound was divided by the IC50 value determined for the reference compound in the same microtiter plate to provide a relative potency value. The relative potency value was then multiplied by the established potency of the reference compound to provide the normalized HEKT-bet IC50 value. […] The IC50 values provided herein were obtained using this normalization method.
In general terms: Reporter assays use an easily measured gene product as a stand-in for the process of interest.
As to `CCN1C(=O)N2Cc3cc(OC)cc(OC)c3C(C)C=C2C12CCN(Cc1cc(C)cc(C)c1)CC2` (racemic) [compound 819597], the IC50 (as a rule, the concentration needed to halve the response being measured) was determined as 0.09 µM. Same read-out and setting: for `COCCN1C(=O)N2Cc3cc(OC)cc(OC)c3C(C)C=C2C12CCN(Cc1cc(OC)cc(OC)c1)CC2` (stereo not drawn) [compound 819543] the value was 0.015 µM; for `COCCN1C(=O)N2Cc3cc(OC)cc(OC)c3C(C)(C)C=C2C12CCN(Cc1cc(OC)cc(OC)c1)CC2` [compound 819544], 0.035 µM; for `CCC1C=C2N(Cc3cc(OC)cc(OC)c31)C(=O)N(CCOC)C21CCN(Cc2cc(OC)cc(OC)c2)CC1` (stereo not drawn) [compound 819549], 0.015 µM.

As to `CCN1C(=O)N2Cc3cc(OC)cc(OC)c3C(C)C=C2C12CCN(Cc1cccs1)CC2` (stereo not drawn) [compound 819556], the IC50 was determined as 0.166 µM. As for `CCc1ccc(CN2CCC3(CC2)C2=CC(C)c4c(cc(OC)cc4OC)CN2C(=O)N3CC)s1` (stereo not drawn) [compound 819557], the IC50 stood at 0.51 µM. On the same count and under the same terms, then `CCN1C(=O)N2Cc3cc(OC)cc(OC)c3C(C)C=C2C12CCN(Cc1cscc1Br)CC2` (stereo not drawn) [compound 819558], with 0.74 µM; and `CCN1C(=O)N2Cc3cc(OC)cc(OC)c3C(C)C=C2C12CCN(Cc1cc(OC)cc(OC)c1)CC2` (stereo not drawn) [compound 819582], with 0.01 µM. Same read-out and setting: for `CCN1C(=O)N2Cc3cc(OC)cc(OC)c3C(C)(C)C=C2C12CCN(Cc1cc(OC)cc(OC)c1)CC2` [compound 819583] the value was 0.112 µM; for `COc1cc(CN2CCC3(CC2)C2=CC(C)(C)c4c(cc(OC)cc4OC)CN2C(=O)N3Cc2cccc(-n3cccc3)c2)cc(OC)c1` [compound 819590], 0.514 µM; for `CCN1C(=O)N2Cc3cc(OC)cc(OC)c3C(C)C=C2C12CCN(Cc1cccc3ncccc13)CC2` (stereo not drawn) [compound 819592], 0.086 µM.

Turning to `CCN1C(=O)N2Cc3cc(OC)cc(OC)c3C(C)C=C2C12CCN(Cc1cccc3cnccc13)CC2` (stereo not drawn) [compound 819593], the IC50 stood at 0.14 µM.

`CCN1C(=O)N2Cc3cc(OC)cc(OC)c3C(C)C=C2C12CCN(Cc1cccc3cccnc13)CC2` (stereo not drawn) [compound 819594]: the IC50 turned out to be 0.06 µM. Take `CCN1C(=O)N2Cc3cc(OC)cc(OC)c3C(C)C=C2C12CCN(Cc1cccc3nccnc13)CC2` (stereo not drawn) [compound 819595]: the IC50 was found to be 0.09 µM.

With `CCN1C(=O)N2Cc3cc(OC)cc(OC)c3C(C)C=C2C12CCN(Cc1cn(C)c3ccccc13)CC2` (stereo not drawn) [compound 819596], the IC50 was 0.72 µM. Regarding `CCN1C(=O)N2Cc3cc(OC)cc(OC)c3C(C)C=C2C12CCN(Cc1cc(Br)cc(Br)c1)CC2` (stereo not drawn) [compound 819599], the half-inhibitory concentration (IC50) was found to be 4.71 µM.

With `CCN1C(=O)N2Cc3cc(OC)cc(OC)c3C(C)(C)C=C2C12CCN(Cc1ccnc3ccccc13)CC2` [compound 819601], the IC50 worked out at 0.26 µM. Still for that read-out and setting: for `CCN1C(=O)N2Cc3cc(OC)cc(OC)c3C(C)(C)C=C2C12CCN(Cc1cccc3ncccc13)CC2` [compound 819602] the value was 0.15 µM; for `CCN1C(=O)N2Cc3cc(OC)cc(OC)c3C(C)(C)C=C2C12CCN(Cc1cccc3cnccc13)CC2` [compound 819603], 0.34 µM; for `CCN1C(=O)N2Cc3cc(OC)cc(OC)c3C(C)(C)C=C2C12CCN(Cc1cccc3cccnc13)CC2` [compound 819604], 0.12 µM. On the same count and under the same terms, then `CCN1C(=O)N2Cc3cc(OC)cc(OC)c3C(C)(C)C=C2C12CCN(Cc1cccc3nccnc13)CC2` [compound 819605], with 0.26 µM; and `CCN1C(=O)N2Cc3cc(OC)cc(OC)c3C(C)(C)C=C2C12CCN(Cc1cn(C)c3ccccc13)CC2` [compound 819606], with 2.87 µM; and `CCN1C(=O)N2Cc3cc(OC)cc(OC)c3C(C)(C)C=C2C12CCN(Cc1cc(C)cc(C)c1)CC2` [compound 819607], with 0.5 µM. On the same count and under the same terms, then `COCCN1C(=O)N2Cc3cc(OC)ccc3C(C)(C)C=C2C12CCN(Cc1ccccc1)CC2` [compound 819613], with 1.31 µM.

Consider `COc1cc2c(c(OC)c1)C(C)(C)C=C1N(C2)C(=O)N(C)C12CCN(Cc1ccc3ccccc3c1)CC2` [compound 819627], for which the IC50 amounted to 1.6 µM. With `COc1cccc(CN2CCC3(CC2)C2=CC(C)(C)c4c(cc(OC)cc4OC)CN2C(=O)N3C)c1` [compound 819628], the IC50 stood at 0.36 µM. As to `COc1cc2c(c(OC)c1)C(C)(C)C=C1N(C2)C(=O)N(C)C12CCN(Cc1ccccc1)CC2` [compound 819629], the IC50 turned out to be 0.84 µM. The same measure, in the same setting: for `COc1cc2c(c(OC)c1)C(C)(C)C=C1N(C2)C(=O)N(C)C12CCN(C/C=C/c1ccccc1)CC2` [compound 819634] the value was 1.15 µM; for `COc1cc2c(c(OC)c1)C(C)(C)C=C1N(C2)C(=O)N(C)C12CCN(Cc1cccc3ccccc13)CC2` [compound 819637], 0.734 µM.

`CCN1C(=O)N2Cc3cc(OC)cc(OC)c3C(C)(C)C=C2C12CCN(Cc1ccccc1)CC2` [compound 819640]: the IC50 was 0.542 µM. The same measure, in the same setting: then `COCCN1C(=O)N2Cc3cc(OC)cc(OC)c3C(C)(C)C=C2C12CCN(Cc1ccccc1)CC2` [compound 819641], with 0.098 µM; and `COc1cc2c(c(OC)c1)C(C)(C)C=C1N(C2)C(=O)N(CCO)C12CCN(Cc1ccccc1)CC2` [compound 819642], with 0.365 µM; and `CCN1C(=O)N2Cc3cc(OC)cc(OC)c3C(C)(C)C=C2C12CCN(Cc1cccc(OC)c1)CC2` [compound 819646], with 0.184 µM. Same read-out and setting: for `COCCN1C(=O)N2Cc3cc(OC)cc(OC)c3C(C)(C)C=C2C12CCN(Cc1cccc(OC)c1)CC2` [compound 819647] the value was 0.064 µM. Still for that read-out and setting: for `COc1cccc(CN2CCC3(CC2)C2=CC(C)(C)c4c(cc(OC)cc4OC)CN2C(=O)N3CCO)c1` [compound 819648] the value was 0.147 µM; for `COc1cccc(CN2CCC3(CC2)C2=CC(C)(C)c4c(cc(OC)cc4OC)CN2C(=O)N3Cc2ccccc2)c1` [compound 819649], 4.95 µM; for `COc1cccc(CN2CCC3(CC2)C2=CC(C)(C)c4c(cc(OC)cc4OC)CN2C(=O)N3Cc2ccc(-n3cccn3)cc2)c1` [compound 819650], 0.669 µM. For `CC=C1C=C2N(Cc3cc(OC)cc(OC)c31)C(=O)N(CC)C21CCN(Cc2cc(OC)cc(OC)c2)CC1` [compound 819651], the IC50 turned out to be 0.11 µM. Same read-out and setting: for `CCC=C1C=C2N(Cc3cc(OC)cc(OC)c31)C(=O)N(CC)C21CCN(Cc2cc(OC)cc(OC)c2)CC1` [compound 819652] the value was 0.27 µM; for `COCCN1C(=O)N2Cc3cc(OC)ccc3C(C)(C)C=C2C12CCN(Cc1cc(OC)cc(OC)c1)CC2` [compound 819655], 0.204 µM; for `COc1cc(CN2CCC3(CC2)C2=CC(C)(C)c4c(cc(OC)cc4OC)CN2C(=O)N3CCO)cc(OC)c1` [compound 819657], 0.065 µM. Regarding `COc1cc(CN2CCC3(CC2)C2=CC(C)(C)c4c(cc(OC)cc4OC)CN2C(=O)N3C)cc(OC)c1` [compound 819658], the IC50 came to 0.141 µM. Consider `COCCN1C(=O)N2Cc3cc(OC)cc(OC)c3C(C)(C)C=C2C12CCN(Cc1cc(C)cc(C)c1)CC2` [compound 819659], for which the IC50 is 0.068 µM. The same measure, in the same setting: then `COc1cc(CN2CCC3(CC2)C2=CC(C)(C)c4c(cc(OC)cc4OC)CN2C(=O)N3Cc2ccccc2)cc(OC)c1` [compound 819662], with 0.898 µM; and `COc1cc(CN2CCC3(CC2)C2=CC(C)(C)c4c(cc(OC)cc4OC)CN2C(=O)N3Cc2ccc(-n3cccn3)cc2)cc(OC)c1` [compound 819663], with 0.637 µM; and `COCCN1C(=O)N2Cc3cc(F)ccc3C(C)(C)C=C2C12CCN(Cc1cc(OC)cc(OC)c1)CC2` [compound 819672], with 0.877 µM. The same measure, in the same setting: for `COCCN1C(=O)N2Cc3cc(OC)cc(OC)c3CC=C2C12CCN(Cc1cc(OC)cc(OC)c1)CC2` [compound 819673] the value was 0.102 µM; for `COCCN1C(=O)N2Cc3ccccc3C(C)(C)C=C2C12CCN(Cc1cc(OC)cc(OC)c1)CC2` [compound 819677], 1.02 µM; for `COc1cc2c(c(OC)c1)C(C)C=C1N(C2)C(=O)N(C)C12CCN(Cc1cccc3ncccc13)CC2` (stereo not drawn) [compound 819688], 0.288 µM. On the same count and under the same terms, then `COc1cc2c(c(OC)c1)C(C)C=C1N(C2)C(=O)N(C)C12CCN(Cc1cccc3cccnc13)CC2` (stereo not drawn) [compound 819689], with 0.169 µM; and `COCCN1C(=O)N2Cc3ccoc3C(C)(C)C=C2C12CCN(Cc1cc(OC)cc(OC)c1)CC2` [compound 819698], with 1.98 µM. As for `COCCN1C(=O)N2Cc3cc(OC)c(OC)c(OC)c3C(C)(C)C=C2C12CCN(Cc1cc(OC)cc(OC)c1)CC2` [compound 819701], the half-maximal inhibitory concentration (IC50) came out at 0.021 µM. Same read-out and setting: for `CCN1C(=O)N2Cc3cc(OC)cc(OC)c3/C=C/C=C\2C12CCN(Cc1cc(OC)cc(OC)c1)CC2` [compound 819702] the value was 0.6 µM; for `C=C1C=C2N(Cc3cc(OC)cc(OC)c31)C(=O)N(CC)C21CCN(Cc2cc(OC)cc(OC)c2)CC1` [compound 819703], 0.247 µM; for `COCCN1C(=O)N2Cc3cc(F)cc(F)c3C(C)(C)C=C2C12CCN(Cc1cc(OC)cc(OC)c1)CC2` [compound 819704], 2.76 µM.

Staying with this experiment, now noted: Homo sapiens, HEKT-bet-luc assay; value used for normalization; read-out: established potency of the reference compound (IC50).
With `COCCN1C(=O)N2Cc3cc(OC)cc(OC)c3C(C)(C)C=C2C12CCN(Cc1cc(OC)cc(OC)c1)CC2` [ER-819544], the IC50 worked out at 0.035 µM.

The experiment is the same for the next values; noted with them: normalized HEKT-bet-luc IC50; engineered HEK cells, T-box responsive luciferase reporter, compound 24 hours; normalized to reference ER-819544; read-out: IC50.
For `COc1cc(CN2CCC3(CC2)C2=CC(C)(C)c4c(cc(OC)cc4OC)CN2C(=O)N3CCO)cc(OC)c1` [compound 819657], the IC50 is 0.124 µM.
